Assay results from publication PMC7296828 (Biochemistry, 2020).

Target: T1, Ribonuclease 6 (RNase 6, RNase K6) (Homo sapiens, UniProt Q93091)
T1 sequence (Q93091 24-150): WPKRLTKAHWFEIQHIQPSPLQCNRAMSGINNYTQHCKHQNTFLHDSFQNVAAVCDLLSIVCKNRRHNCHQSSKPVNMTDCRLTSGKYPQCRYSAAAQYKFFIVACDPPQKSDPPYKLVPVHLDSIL
Test: X-ray crystal structure
Assay type: binding

Kd: 154 ± 5 µM
Structure (SMILES): Nc1ncnc2c1ncn2[C@@H]1O[C@H](COP(=O)(O)O)[C@@H](O)[C@H]1O [5’-AMP]
